Test system: 843126-344-R-J1-PDC complex spheroid viability
Test: Anticancer human tumor 843126-344-R-J1-PDC patient-derived melanoma cell line growth inhibition [POLQ]
Conditions: for IC50: curve of first compound; for viability, T/C: stronger effect = lower value
Experimental: Multicellular complex tumor spheroid response to Polymerase (POL) inhibitors (novobiocin, ART-558, RP6685) in combination with a variety of drugs and investigational agents in selected tumor cell lines
The POL inhibitors (novobiocin, ART-558, and RP6685) were evaluated both individually and in combination with standard of care and investigational anticancer small molecules within a complex spheroid model of solid tumors. . Complex spheroids include a stromal component modeled by human endothelial cells (HUVEC) and fibroblasts modeled by human mesenchymal stem cells (MSCs). The concentration ranges selected for each drug and investigational agent were based upon clinically achievable concentrations if the clinical Cmax of the agent was known.
Compounds. The drugs and investigational agents: novobiocin (NSC847541), ART-558 (NSC835418), RP-6685 (NSC848927), peposertib (NSC802822), ceralasertib (NSC780249), elimusertib (NSC800525), camonsertib (NSC841442), AZD-1390 (NSC803789), olaparib (NSC753686), talazoparib (NSC767125), rucaparib (NSC756644), sotorasib (NSC818433), MRTX-1133 (NSC836407), SN-38 (NSC673596), topotecan (NSC609699), epotoside (NSC141540), doxorubicin (NSC123127), gemcitabine (NSC613327), 5-fluorouracil (NSC19893), paclitaxel (NSC125973), vemurafenib (NSC761431), MSA-2 (NSC828583), SN-011 (NSC837082), adavosertib (NSC754352), prexasertib (NSC758257), carboplatin (NSC241240) and oxaliplatin (NSC266046), were obtained from the National Cancer Institute (NCI) Developmental Therapeutics Program Chemical Repository (21). The FDA-approved anticancer drug set is available from the Developmental Therapeutics Program at https://dtp.cancer.gov/organization/dscb/obtaining/. […] The stock solutions were prepared in dimethyl sulfoxide (DMSO, Sigma-Aldrich, St. Louis, MO, cat. D2650), except for the platinum compounds which were prepared in saline (Quality Biological, Gaithersburg, MD, cat. 114-055-101), at 800-fold the tested concentration and stored at -70 degrees C prior to their use. All drugs and investigational agents were tested over a range starting from a high concentration at or near the clinical Cmax and decreasing in half-log increments. If the clinical Cmax for an agent had not been determined, the highest concentration tested was 10 microM, except for SN-38, which was tested at a high concentration of 1 microM.
Cell Culture. All cells were maintained in an incubator at 37 degrees C and 5% CO2 with 95% humidity. The PDC lines were cultured according to standard operating procedures established by the NCI PDMR (https://pdmr.cancer.gov). Table 3 of the manuscript, lists the cell lines along with the number of the three cell types plated to form the mct-spheroids and media for tumor cell growth. After thawing, all PDC lines, except 997537-175-T-J1-PDC and 415267-285-R-J2-PDC, were cultured in Matrigel-coated flasks prepared with a working solution of 1X Ham's F-12 nutrient mix, without supplementation (Thermo Fisher Scientific, cat. 11765054), 100 U/mL penicillin-streptomycin (Thermo Fisher Scientific, cat. 15140122), and 2.5% Matrigel (Corning Inc., Corning, NY, cat. 354248) for the first three passages. The two PDC lines 997537-175-T-J1-PDC and 415267-285-R-J2-PDC were cultured on uncoated flasks. The 857933-349-R-J2-PDC line was cultured in 6C/Colon 1B media containing advanced DMEM/F-12 (Thermo Fisher Scientific, cat. 12634028), 10 mM HEPES (Thermo Fisher Scientific, cat. 15630080), 1X GlutaMAX supplement (Thermo Fisher Scientific, cat. 35050061), 0.1 mg/mL primocin (InvivoGen, San Diego, CA, cat. ant-pm-2), 10% defined fetal bovine serum, heat inactivated (HyClone Laboratories Inc., Logan, UT, cat. SH30070.03HI), 50% L-WRN conditioned media (ATCC, cat. CRL-3276), 1.25 mM N-Acetyl-L-cysteine (Sigma-Aldrich, cat. A9165), 10 mM nicotinamide (Sigma-Aldrich, cat. N0636), 1X B-27 supplement (Thermo Fisher Scientific, cat. 17504044), 1X N-2 supplement (Thermo Fisher Scientific, cat. […]
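Wherever viability, T/C is given: spheroids exposed to drugs for seven days before readout.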

## C=CCn1c(=O)c2cnc(Nc3ccc(N4CCN(C)CC4)cc3)nc2n1-c1cccc(C(C)(C)O)n1 + Nc1ccc(C#CCN(C(=O)Cc2ncc(C(F)(F)F)cc2C(F)(F)F)c2ccc(F)cc2)nn1
Second compound 0.0316 µM
  IC50: > 1000 nM
Second compound 0.1 µM
  IC50: > 1000 nM
Second compound 0.316 µM
  IC50: > 1000 nM
Second compound 1 µM
  IC50: > 1000 nM
Second compound 3.16 µM
  IC50: > 1000 nM
Second compound 10 µM
  IC50: > 1000 nM
Second compound 0.0316 µM, first compound 0.00316 µM
  viability, T/C: 93.9%
Second compound 0.0316 µM, first compound 0.01 µM
  viability, T/C: 81.2%
Second compound 0.0316 µM, first compound 0.0316 µM
  viability, T/C: 98.9%
Second compound 0.0316 µM, first compound 0.1 µM
  viability, T/C: 110%
Second compound 0.0316 µM, first compound 0.316 µM
  viability, T/C: 101%
Second compound 0.0316 µM, first compound 1 µM
  viability, T/C: 81.9%
Second compound 0.1 µM, first compound 0.00316 µM
  viability, T/C: 91.9%
Second compound 0.1 µM, first compound 0.01 µM
  viability, T/C: 92.1%
Second compound 0.1 µM, first compound 0.0316 µM
  viability, T/C: 104%
Second compound 0.1 µM, first compound 0.1 µM
  viability, T/C: 85.9%
Second compound 0.1 µM, first compound 0.316 µM
  viability, T/C: 86.5%
Second compound 0.1 µM, first compound 1 µM
  viability, T/C: 77.6%
Second compound 0.316 µM, first compound 0.00316 µM
  viability, T/C: 95.1%
Second compound 0.316 µM, first compound 0.01 µM
  viability, T/C: 90.7%
Second compound 0.316 µM, first compound 0.0316 µM
  viability, T/C: 98.8%
Second compound 0.316 µM, first compound 0.1 µM
  viability, T/C: 105%
Second compound 0.316 µM, first compound 0.316 µM
  viability, T/C: 93.6%
Second compound 0.316 µM, first compound 1 µM
  viability, T/C: 72%
Second compound 1 µM, first compound 0.00316 µM
  viability, T/C: 106%
Second compound 1 µM, first compound 0.01 µM
  viability, T/C: 80.8%
Second compound 1 µM, first compound 0.0316 µM
  viability, T/C: 87.7%
Second compound 1 µM, first compound 0.1 µM
  viability, T/C: 90.4%
Second compound 1 µM, first compound 0.316 µM
  viability, T/C: 85.4%
Second compound 1 µM, first compound 1 µM
  viability, T/C: 86.4%
Second compound 3.16 µM, first compound 0.00316 µM
  viability, T/C: 91.2%
Second compound 3.16 µM, first compound 0.01 µM
  viability, T/C: 84.2%
Second compound 3.16 µM, first compound 0.0316 µM
  viability, T/C: 92.5%
Second compound 3.16 µM, first compound 0.1 µM
  viability, T/C: 106%
Second compound 3.16 µM, first compound 0.316 µM
  viability, T/C: 75%
Second compound 3.16 µM, first compound 1 µM
  viability, T/C: 59.8%
Second compound 10 µM, first compound 0.00316 µM
  viability, T/C: 94.1%
Second compound 10 µM, first compound 0.01 µM
  viability, T/C: 83.7%
Second compound 10 µM, first compound 0.0316 µM
  viability, T/C: 84.5%
Second compound 10 µM, first compound 0.1 µM
  viability, T/C: 91.9%
Second compound 10 µM, first compound 0.316 µM
  viability, T/C: 79.1%
Second compound 10 µM, first compound 1 µM
  viability, T/C: 74.5%
